pIC50: −log10 of the molar value.
Target: PRMT5/MEP50 complex (Homo sapiens, UniProt O14744)
Assay: Chemiluminescent Assay: A PRMT5 chemiluminescent assay was used to measure the IC50 activity of PRMT5 of the compounds of Examples 1A to 7 above. Biotinylated histone peptides were synthesized and attached to 384-well plates. Compound serial dilutions were performed and added to the assay plate. Histone H4 monomethyl R3 antibody was obtained from Abcam. A master mix for each well was prepared and human PRMT5/MEP50 (expressed in HEK293 cells) diluted in assay buffer to a concentration of 5 ng/μL. The reaction was incubated and slowly rotated for 60 minutes at the point of PRMT5/MEP50 addition. The supernatant from the wells was removed and blocking buffer was added to each well and rotated for 10 minutes. The primary antibody was diluted and added to every well for 60 minutes, before it was removed and the wells washed. The horse raddish peroxidase (HRP)-coupled secondary antibody was diluted and added to each well with an incubation time of 30 minutes. The HRP chemiluminescent substrate was added to every well. The plate was read on a Flourstar Omega BMG Labtech instrument (Ortenberg, Germany) and the analysis of IC50 was performed using the Flourstar Omega BMG Labtech software.
Type: cell-based

PRMT5/MEP50 complex, sequence (O14744 whole entry): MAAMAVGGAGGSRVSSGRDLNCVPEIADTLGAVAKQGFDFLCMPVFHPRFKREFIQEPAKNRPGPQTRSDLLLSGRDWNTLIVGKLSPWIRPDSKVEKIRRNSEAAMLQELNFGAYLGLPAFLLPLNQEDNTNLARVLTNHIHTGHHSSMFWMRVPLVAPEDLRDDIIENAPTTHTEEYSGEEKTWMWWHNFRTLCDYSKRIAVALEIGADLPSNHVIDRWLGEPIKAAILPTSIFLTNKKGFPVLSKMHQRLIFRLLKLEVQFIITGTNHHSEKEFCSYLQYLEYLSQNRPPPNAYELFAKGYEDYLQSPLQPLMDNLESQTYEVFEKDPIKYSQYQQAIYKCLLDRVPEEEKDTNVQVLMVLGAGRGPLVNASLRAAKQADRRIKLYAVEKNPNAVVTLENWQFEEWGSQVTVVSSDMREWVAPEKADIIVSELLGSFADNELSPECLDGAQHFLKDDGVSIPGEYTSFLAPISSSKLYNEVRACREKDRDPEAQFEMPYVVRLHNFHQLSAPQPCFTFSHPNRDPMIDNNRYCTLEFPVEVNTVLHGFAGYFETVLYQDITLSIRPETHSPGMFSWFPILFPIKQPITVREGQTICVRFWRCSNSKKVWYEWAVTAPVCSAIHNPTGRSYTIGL
PRMT5/MEP50 complex, sequence (Q9BQA1 whole entry, further chain): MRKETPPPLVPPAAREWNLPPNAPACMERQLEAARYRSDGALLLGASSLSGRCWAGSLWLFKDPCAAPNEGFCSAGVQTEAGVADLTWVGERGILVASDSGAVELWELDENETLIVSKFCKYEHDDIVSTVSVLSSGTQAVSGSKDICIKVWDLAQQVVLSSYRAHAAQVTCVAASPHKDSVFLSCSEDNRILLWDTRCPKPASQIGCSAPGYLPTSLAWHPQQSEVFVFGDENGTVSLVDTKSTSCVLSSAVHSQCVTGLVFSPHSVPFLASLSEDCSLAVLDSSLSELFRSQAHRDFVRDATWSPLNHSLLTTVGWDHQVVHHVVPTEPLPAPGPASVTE

SMILES: O=C(OCC(O)CN1CCc2ccccc2C1)N1CCCC(c2ccccc2)C1 (stereo unspecified)
- pIC50: 7.12

Reference: ChEMBL document CHEMBL5729418, “Compounds and methods useful in the treatment of a PRMT5-mediated disorder” (2022)
